Measured values as given in patent US20080009532A1, “Antimicrobially Finished Solid Preparations” (priority 2005, published 2008).

Test system: mixture of bacterial species: Pseudomonas aeruginosa, Pseudomonas fluorescens, Pseudomonas oleovorans, Pseudomonas rubescens, Pseudomonas stutzeri, Alcaligenes …
Assay: Microbiological stress test (preservation stress test) in calcium carbonate slurry
Assay type: cell-based
Conditions: calcium carbonate slurry (solids 70-75%), 3 days 60° C. pre-stress, weekly contamination
Protocol: Microbiological Stress Test The microbiological stress test examines the susceptibility of water-based systems to microbial attack and the efficacy of preservatives. To this end, defined concentrations of the preservatives are incorporated into the water-based systems. To simulate reality-like conditions, depending on the medium to be examined, the sample may be stored at elevated temperatures (for example for 7 days at 40° C., for 3 days at 60° C. or the like) prior to carrying out the actual preservation test, in order to evaluate the preservatives to be tested under conditions which are as realistic as possible. After the preliminary work has been concluded, there is, at weekly intervals, a contamination with microorganisms of a defined type over a test period of at most 6 weeks. 2-3 and 7 days after each contamination it is established by germ number determination, whether there has been a complete kill or at least an inhibition of proliferation of the microorganisms introduced, compared to the non-preserved control samples. On account of the microorganism populations known to predominate in mineral suspensions and dispersions, for the experiment, a mixture of the following bacterial species was used for the test: Pseudomonas aeruginosa Pseudomonas fluorescens Pseudomonas oleovorans Pseudomonas rubescens Pseudomonas stutzeri Alcaligenes faecalis Citrobacter freundii Corynebacterium sp. Very good efficacy is achieved when the preserved samples effect a kill of the microorganisms introduced even after 6 contamination cycles. […] Using a calcium carbonate slurry (solids content 70-75%), a preservation stress test was carried out in accordance with the above scheme. After incorporation of the respective biocide products at the stated concentrations, the samples were exposed to thermal stress at 60° C. for 3 days in order to identify unstable active compound components in the biocide products even at this phase of the experiment by subsequent loss of activity.

O=c1[nH]sc2ccccc12 [benzisothiazolinone, 1,2-benzisothiazolin-3-one]
Preservation state Week 1 (100 ppm): ok | Preservation state Week 2 (100 ppm): spoilt | Preservation state Week 3 (100 ppm): spoilt | Preservation state Week 4 (100 ppm): spoilt | Preservation state Week 5 (100 ppm): spoilt | Preservation state Week 6 (100 ppm): spoilt | Preservation state Week 1 (150 ppm): ok | Preservation state Week 2 (150 ppm): ok | Preservation state Week 3 (150 ppm): spoilt | Preservation state Week 4 (150 ppm): spoilt | Preservation state Week 5 (150 ppm): spoilt | Preservation state Week 6 (150 ppm): spoilt | Preservation state Week 1 (200 ppm): ok | Preservation state Week 2 (200 ppm): ok | Preservation state Week 3 (200 ppm): ok | Preservation state Week 4 (200 ppm): spoilt | Preservation state Week 5 (200 ppm): spoilt | Preservation state Week 6 (200 ppm): spoilt
